Structures are written as SMILES. Where only a bound is given, the exact number is not on record here.

By EC50 is commonly meant the concentration that produces a half-maximal response.

The test deals with HEK293T cells carrying the ATF4 luciferase reporter. Put plainly: ATF4-Luc assay, in vitro model of Vanishing Cell White Matter Disease (VWMD). Conditions: Homo sapiens, HEK-293T, 1 μg/mL tunicamycin, 7 hours, One Glo luminescence. The class given is cell-based. The method, boiled down: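 Compound at 200 nM and tunicamycin at 1 μg/mL were given together for 7 h to HEK293T cells stably transduced with an ATF4 5′-UTR-driven firefly luciferase reporter. Read-out by luminescence, reported as EC50.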
On to `O=C(COc1ccc(Cl)c(F)c1)NC12CCC(NC(=O)c3csc(C(F)(F)F)n3)(CC1)CC2O` (stereo not shown) [Compound 466, N-{4-[2-(4-chloro-3-fluorophenoxy)acetamido]-3-hydroxybicyclo[2.2.2]octan-1-yl}-2-(trifluoromethyl)-1,3-thiazole-4-carboxamide], for which the EC50 was under 50 nM.
To `Cc1nc(C(=O)NC23CCC(NC(=O)COc4ccc(Cl)c(F)c4)(CC2)C(O)C3)co1` (stereo not shown) [Compound 467, N-{4-[2-(4-chloro-3-fluorophenoxy)acetamido]-3-hydroxybicyclo[2.2.2]octan-1-yl}-2-methyl-1,3-oxazole-4-carboxamide] belongs 50 to 250 nM; to `Cc1cc(C(=O)NC23CCC(NC(=O)COc4ccc(Cl)c(F)c4)(CC2)C(O)C3)nn1C` (stereo not shown) [Compound 468, N-{4-[2-(4-chloro-3-fluorophenoxy)acetamido]-3-hydroxybicyclo[2.2.2]octan-1-yl}-1,5-dimethyl-1H-pyrazole-3-carboxamide], 250 to 1000 nM.
Next, `Cc1cnc(C(=O)NC23CC(NC(=O)COc4ccc(Cl)c(F)c4)(C2)C3)s1` [Compound 469, N-{3-[2-(4-chloro-3-fluorophenoxy)acetamido]bicyclo[1.1.1]pentan-1-yl}-5-methyl-1,3-thiazole-2-carboxamide]: 250 to 1000 nM; `Cc1nc(C(=O)NC23CC(NC(=O)COc4ccc(Cl)c(F)c4)(C2)C3)sc1C` [Compound 470, N-{3-[2-(4-chloro-3-fluorophenoxy)acetamido]bicyclo[1.1.1]pentan-1-yl}-4,5-dimethyl-1,3-thiazole-2-carboxamide]: 50 to 250 nM; `Cc1ncc(C(=O)NC23CCC(NC(=O)COc4ccc(Cl)c(F)c4)(CC2)C(O)C3)s1` (stereo not shown) [Compound 471, N-{4-[2-(4-chloro-3-fluorophenoxy)acetamido]-3-hydroxybicyclo[2.2.2]octan-1-yl}-2-methyl-1,3-thiazole-5-carboxamide]: 50 to 250 nM.
To `Cc1nc(C(=O)NC23CCC(NC(=O)COc4ccc(Cl)c(F)c4)(CC2)C(O)C3)c(C)o1` (stereo not shown) [Compound 472, N-{4-[2-(4-chloro-3-fluorophenoxy)acetamido]-3-hydroxybicyclo[2.2.2]octan-1-yl}-2,5-dimethyl-1,3-oxazole-4-carboxamide] belongs 250 to 1000 nM; to `Cc1nc(C(=O)NC23CCC(NC(=O)COc4ccc(Cl)c(F)c4)(CC2)C(O)C3)cs1` (stereo not shown) [Compound 473, N-{4-[2-(4-chloro-3-fluorophenoxy)acetamido]-3-hydroxybicyclo[2.2.2]octan-1-yl}-2-methyl-1,3-thiazole-4-carboxamide], 50 to 250 nM; to `Cc1cc(C(=O)NC23CCC(NC(=O)COc4ccc(Cl)c(F)c4)(CC2)C(O)C3)oc1C` (stereo not shown) [Compound 474, N-{4-[2-(4-chloro-3-fluorophenoxy)acetamido]-3-hydroxybicyclo[2.2.2]octan-1-yl}-4,5-dimethylfuran-2-carboxamide], 50 to 250 nM.
As for `O=C(COc1ccc(C(F)F)c(F)c1)NC12CC(NC(=O)c3cnc(C(F)F)cn3)(C1)C2` [Compound 475, 5-(difluoromethyl)-N-(3-{2-[4-(difluoromethyl)-3-fluorophenoxy]acetamido}bicyclo[1.1.1]pentan-1-yl)pyrazine-2-carboxamide], the EC50 fell in the range of 50 to 250 nM.
To `CC(O)c1ncc(C(=O)NC23CC(NC(=O)COc4ccc(Cl)c(F)c4)(C2)C3)s1` (stereo not shown) [Compound 476, N-{3-[2-(4-chloro-3-fluorophenoxy)acetamido]bicyclo[1.1.1]pentan-1-yl}-2-(1-hydroxyethyl)-1,3-thiazole-5-carboxamide] belongs 250 to 1000 nM; to `O=C(COc1ccc(Cl)c(F)c1)NC12CCC(NC(=O)c3cccnc3)(C1)C2` [Compound 477, N-{4-[2-(4-chloro-3-fluorophenoxy)acetamido]bicyclo[2.1.1]hexan-1-yl}pyridine-3-carboxamide], 1000 to 2000 nM.
With `Cc1cnc(C(=O)NC23CC(NC(=O)COc4ccc(Cl)c(F)c4)(C2)C3)o1` [Compound 478, N-{3-[2-(4-chloro-3-fluorophenoxy)acetamido]bicyclo[1.1.1]pentan-1-yl}-5-methyl-1,3-oxazole-2-carboxamide], the EC50 fell in the range of 50 to 250 nM.
`CCc1noc(C(=O)NC23CC(NC(=O)COc4ccc(Cl)c(F)c4)(C2)C3)n1` [Compound 479, N-{3-[2-(4-chloro-3-fluorophenoxy)acetamido]bicyclo[1.1.1]pentan-1-yl}-3-ethyl-1,2,4-oxadiazole-5-carboxamide]: the half-maximal effective concentration (EC50) lay within 50 to 250 nM.
Take `O=C(COc1ccc(Cl)c(F)c1)NC12CCC(NC(=O)c3ccc(OC(F)(F)F)cn3)(CC1)CC2O` (stereo not shown) [Compound 480, N-{4-[2-(4-chloro-3-fluorophenoxy)acetamido]-3-hydroxybicyclo[2.2.2]octan-1-yl}-5-(trifluoromethoxy)pyridine-2-carboxamide]: the EC50 is under 50 nM.
Next, `O=C(COc1ccc(Cl)c(F)c1)NC12CC(NC(=O)c3cc(-n4cncn4)ccn3)(C1)C2` [Compound 481, N-{3-[2-(4-chloro-3-fluorophenoxy)acetamido]bicyclo[1.1.1]pentan-1-yl}-4-(1H-1,2,4-triazol-1-yl)pyridine-2-carboxamide]: 1000 to 2000 nM; `O=C(COc1ccc(Cl)c(F)c1)NC12CC(NC(=O)c3cnc4ccccc4n3)(C1)C2` [Compound 482, N-{3-[2-(4-chloro-3-fluorophenoxy)acetamido]bicyclo[1.1.1]pentan-1-yl}quinoxaline-2-carboxamide]: under 50 nM.
To `O=C(COc1ccc(Cl)c(F)c1)NC12CCC(NC(=O)c3ccccc3F)(CC1)[C@@H](O)C2` [Compound 483, N-{(2S)-4-[2-(4-chloro-3-fluorophenoxy)acetamido]-2-hydroxybicyclo[2.2.2]octan-1-yl}-2-fluorobenzamide] belongs 50 to 250 nM; to `O=C(COc1ccc(Cl)c(F)c1)NC12CCC(NC(=O)c3ccccc3)(CC1)[C@@H](O)C2` [Compound 484, N-{(2S)-4-[2-(4-chloro-3-fluorophenoxy)acetamido]-2-hydroxybicyclo[2.2.2]octan-1-yl}benzamide], 50 to 250 nM.
To `Cc1nc(C(=O)NC23CCC(NC(=O)COc4ccc(Cl)c(F)c4)(CC2)C(O)C3)n[nH]1` (stereo not shown) [Compound 487, N-{4-[2-(4-chloro-3-fluorophenoxy)acetamido]-3-hydroxybicyclo[2.2.2]octan-1-yl}-5-methyl-1H-1,2,4-triazole-3-carboxamide] belongs under 50 nM; to `O=C(COc1ccc(Cl)c(F)c1)NC12CCC(NC(=O)c3cccc(F)c3)(CC1)[C@@H](O)C2` [Compound 488, N-{(2S)-4-[2-(4-chloro-3-fluorophenoxy)acetamido]-2-hydroxybicyclo[2.2.2]octan-1-yl}-3-fluorobenzamide], 50 to 250 nM.
With `O=C(COc1ccc(Cl)c(F)c1)NC12CCC(NC(=O)c3ccc(F)cc3)(CC1)[C@@H](O)C2` [Compound 489, N-{(2S)-4-[2-(4-chloro-3-fluorophenoxy)acetamido]-2-hydroxybicyclo[2.2.2]octan-1-yl}-4-fluorobenzamide], the EC50 fell in the range of 50 to 250 nM.
To `O=C(COc1ccc(Cl)c(F)c1)NC12CC(Nc3cccc4cnccc34)(C1)C2` [Compound 490, 2-(4-chloro-3-fluorophenoxy)-N-{3-[(isoquinolin-5-yl)amino]bicyclo[1.1.1]pentan-1-yl}acetamide] belongs 50 to 250 nM; to `CN1CCc2c(cccc2NC23CC(NC(=O)COc4ccc(Cl)c(F)c4)(C2)C3)C1` [Compound 491, 2-(4-chloro-3-fluorophenoxy)-N-{3-[(2-methyl-1,2,3,4-tetrahydroisoquinolin-5-yl)amino]bicyclo[1.1.1]pentan-1-yl}acetamide], over 2000 nM.
To `Cn1cc2c(NC34CC(NC(=O)COc5ccc(Cl)c(F)c5)(C3)C4)nccc2n1` [Compound 492, 2-(4-chloro-3-fluorophenoxy)-N-{3-[(2-methyl-2H-pyrazolo[4,3-c]pyridin-4-yl)amino]bicyclo[1.1.1]pentan-1-yl}acetamide] belongs 50 to 250 nM; to `Cn1cc2ccnc(NC34CC(NC(=O)COc5ccc(Cl)c(F)c5)(C3)C4)c2n1` [Compound 493, 2-(4-chloro-3-fluorophenoxy)-N-{3-[(2-methyl-2H-pyrazolo[3,4-c]pyridin-7-yl)amino]bicyclo[1.1.1]pentan-1-yl}acetamide], 50 to 250 nM.
As for `Cc1cc2c(NC34CC(NC(=O)COc5ccc(Cl)c(Cl)c5)(C3)C4)nccn2n1` [Compound 494, 2-(3,4-dichlorophenoxy)-N-{3-[(2-methylpyrazolo[1,5-a]pyrazin-4-yl)amino]bicyclo[1.1.1]pentan-1-yl}acetamide], the EC50 was under 50 nM.
To `Cc1cc2c(NC34CC(NC(=O)COc5cc(F)c(F)c(F)c5)(C3)C4)nccn2n1` [Compound 495, N-{3-[(2-methylpyrazolo[1,5-a]pyrazin-4-yl)amino]bicyclo[1.1.1]pentan-1-yl}-2-(3,4,5-trifluorophenoxy)acetamide] belongs 250 to 1000 nM; to `Cc1cc2c(NC34CC(NC(=O)COc5ccc(OC(F)(F)F)c(F)c5)(C3)C4)nccn2n1` [Compound 496, 2-[3-fluoro-4-(trifluoromethoxy)phenoxy]-N-{3-[(2-methylpyrazolo[1,5-a]pyrazin-4-yl)amino]bicyclo[1.1.1]pentan-1-yl}acetamide], 50 to 250 nM; to `Cc1nc(C(=O)NC23CCC(NC(=O)COc4ccc(Cl)c(F)c4)(CC2)[C@H](O)C3)c(C)s1` [Compound 497, N-{(3R)-4-[2-(4-chloro-3-fluorophenoxy)acetamido]-3-hydroxybicyclo[2.2.2]octan-1-yl}-2,5-dimethyl-1,3-thiazole-4-carboxamide], 250 to 1000 nM.
Next, `Cc1nn(C)c(C(=O)NC23CCC(NC(=O)COc4ccc(Cl)c(F)c4)(CC2)C[C@@H]3O)c1F` [Compound 498, N-{(2S)-4-[2-(4-chloro-3-fluorophenoxy)acetamido]-2-hydroxybicyclo[2.2.2]octan-1-yl}-4-fluoro-1,3-dimethyl-1H-pyrazole-5-carboxamide]: under 50 nM.

(Values after US10913727B2, “Modulators of the integrated stress pathway” (Calico Life Sciences LLC, priority 2016, dated 2021).)
